# Data reported in US20060014740A1 (priority 2003, published 2006).
# Like-named read-outs stand apart in the source and are kept apart here.
# How the values were obtained:
# [1] = system: AKT phosphorylation (Pi-AKT) in LNCaP cells; assay: AKT phosphorylation by Western blot in LNCaP cells; type: cell-based, human
# Procedure: As another assessment of cytotoxicity, AKT inhibition was measured. […] The immunoblots were visualized by enhanced, chemiluminescence, and changes of relative levels of phospho-AKT compared to total AKT by analog treatment were quantified by densitometric analysis.
# Prostate cell line LNCaP cells were treated with 30 μM of the compound of Formula: [drawing 54]
# for the indicated period and time. The active form of AKT (Pi-AKT) and the β-Actin were quantified by Western blot analysis. […]
# Prostate cell line LNCaP cells were treated with 10 μM of the compound of Formula: [drawing 55]
# for the indicated period and time. The active form of AKT (Pi-AKT) and AKT were quantified by Western blot analysis. […]
# Prostate cell line LNCaP cells were treated with 10 μM of the compound of Formula [drawing 56]
# for the indicated period and time. The active form of AKT (Pi-AKT), AKT and β-Actin were quantified by Western blot analysis. […]
# [2] = system: LNCaP human prostate cancer cells; assay: SRB cytotoxicity assay, LNCaP; type: cell-based; settings: Homo sapiens
# Procedure: (§1) For in vitro cytotoxicity screening, 1000 to 5000 cells were plated into each well of 96-well plates depending on growth rate, and exposed to different concentrations of a test compound for 96 h in three to five replicates. All the compounds were dissolved in dimethyl sulfoxide at 5 to 20 mM, and diluted to desired concentrations in complete culture medium. Cell numbers at the end of the drug treatment were measured by the SRB assay (Gududuru et al., “Synthesis and Biological Evaluation of Novel Cytotoxic Phospholipids for Prostate Cancer,” Bioorg. Med. Chem. Lett. 14:4919-4923 (2004); Rubinstein et at., “Comparison of in vitro Anticancer-Drug-Screening Data Generated with a Tetrazolium Assay Versus a Protein Assay Against a Diverse Panel of Human Tumor Cell Lines,” J. Naatl, Cancer Inst. 82:1113-1118 (1990), each of which is hereby incorporated by reference in its entirety). Briefly, the cells were fixed with 10% of trichloroacetic acid, stained with 0.4% SRB, and the absorbances at 540 nm was measured using a plate reader (DYNEX Technologies, Chantilly, Va.).
# (§2) The antiproliferative activity of all the synthesized compounds was evaluated against five human prostate cancer cell lines and in RH7777 cells (negative control) using the sulforhodamine B (SRB) assay (see description in Example 5 above).
# (§3) The chosen cell lines represent different basal levels of active AKT and LPL receptor expression (discussed later). Cells were exposed to a wide range of concentrations (0 to 100 μM) of the indicated compound for 96 h. Cell numbers at the end of treatment were measured using the sulforhodamine B (SRB) assay^5.
# (§4) Cells were exposed to a wide range of concentrations (0 to 100 μM) of the particular compound for 96 h in 96 well plates. Cells were fixed with 10% trichloroacetic acid, washed five times with water. The plates were air dried overnight and fixed cells were stained with SRB solution. The cellular protein-bound SRB was measured at 540 nm using a plate reader. Cell numbers at the end of the treatment were measured.
# as §4, with “96-well” for “96 well”, “calculated as a percentage of untreated control.” for “measured.”
# [3] = system: RH7777 rat hepatoma cells; assay: SRB cytotoxicity assay, RH7777 control cell line; type: cell-based; settings: Rattus norvegicus, read-out: IC50 RH7777
# Procedure: as §1, §2, §3, §4
# as §4, with “96-well” for “96 well”, “calculated as a percentage of untreated control.” for “measured.”
# [4] = system: DU-145 human prostate cancer cells; assay: SRB cytotoxicity assay, DU-145; type: cell-based; settings: Homo sapiens
# Procedure: as §1, §2, §3, §4
# as §4, with “96-well” for “96 well”, “calculated as a percentage of untreated control.” for “measured.”
# [5] = system: PC-3 human prostate cancer cells; assay: SRB cytotoxicity assay, PC-3; type: cell-based; settings: Homo sapiens, 96 h, read-out: IC50 PC-3
# Procedure: as §1, §2, §3, §4
# as §4, with “96-well” for “96 well”, “calculated as a percentage of untreated control.” for “measured.”
# [6] = system: PPC-1 human prostate cancer cells; assay: SRB cytotoxicity assay, PPC-1; type: cell-based; settings: Homo sapiens, read-out: IC50 PPC-1
# Procedure: (§5) Dr. Mitchell Steiner at University of Tennessee Health Science Center, kindly provided PPG-1 and TSU-PrI cells.
# as §1, §2, §3, §4
# as §4, with “96-well” for “96 well”, “calculated as a percentage of untreated control.” for “measured.”
# [7] = system: TSU-Pr1 human prostate cancer cells; assay: SRB cytotoxicity assay, TSU-Pr1; type: cell-based; settings: Homo sapiens, read-out: IC50 TSU-Pr1
# Procedure: as §5, §1, §2, §3, §4
# as §4, with “96-well” for “96 well”, “calculated as a percentage of untreated control.” for “measured.”
# [8] = system: human breast cancer cell line (MCF-7); assay: SRB cytotoxicity assay, MCF-7; type: cell-based; settings: Homo sapiens, read-out: IC50 MCF-7
# Procedure: as §1
# In vitro cytotoxicity assay was performed by the same sulforhodamine B (SRB) assay (described above). The compounds shown in Table 8 below where tested for activity against the breast cancer and ovarian cancer cell lines.
# as §3, §4
# [9] = Example 14, 10 μM, 1 h, (−) control 1.00
smiles,measurement,setting,value
CCCCCCCCCCCCCCCCCCNC[C@H](CO)NC.Cl,Time to almost complete inhibition of AKT phosphorylation,"[1]; Example 14, 10 μM",≤ 1 h
same,Relative abundance (Pi-AKT/AKT),[1]; [9],0.07
same,Relative abundance (Pi-AKT/β-Actin),[1]; [9],0.08
same,Relative abundance (Pi-AKT/AKT),"[1]; Example 14, 10 μM, 2 h",0.06
same,Relative abundance (Pi-AKT/β-Actin),"[1]; Example 14, 10 μM, 2 h",0.06
same,Relative abundance (Pi-AKT/AKT),"[1]; Example 14, 10 μM, 3 h",0.04
same,Relative abundance (Pi-AKT/β-Actin),"[1]; Example 14, 10 μM, 3 h",0.04
same,Relative abundance (Pi-AKT/AKT),"[1]; Example 14, 10 μM, 4 h",0.12
same,Relative abundance (Pi-AKT/β-Actin),"[1]; Example 14, 10 μM, 4 h",0.11
same,Relative abundance (Pi-AKT/AKT),"[1]; Example 14, 10 μM, 6 h",0.12
same,Relative abundance (Pi-AKT/β-Actin),"[1]; Example 14, 10 μM, 6 h",0.10
same,Relative abundance (Pi-AKT/AKT),"[1]; Example 14, 10 μM, 8 h",0.14
same,Relative abundance (Pi-AKT/β-Actin),"[1]; Example 14, 10 μM, 8 h",0.11
same,Relative abundance (Pi-AKT/AKT),"[1]; Example 14, 10 μM, 10 h",0.14
same,Relative abundance (Pi-AKT/β-Actin),"[1]; Example 14, 10 μM, 10 h",0.43
CCCCCCCCCCCCCCCCCCNC(=O)[C@H](CO)NC(=O)OC(C)(C)C,IC50,"[2]; stated in the text of the LNCaP AKT experiments (Examples 12-14), test of the IC50 not named, read-out: IC50",10.3 µM
same,Relative abundance (Pi-AKT/β-Actin),"[1]; 30 μM, 1 h, (−) control 1.00",1.29
same,Relative abundance (Pi-AKT/β-Actin),"[1]; 30 μM, 2 h",1.01
same,Relative abundance (Pi-AKT/β-Actin),"[1]; 30 μM, 6 h",0.71
same,Relative abundance (Pi-AKT/β-Actin),"[1]; 30 μM, 12 h",0.50
same,Relative abundance (Pi-AKT/β-Actin),"[1]; 30 μM, 24 h",0.32
same,Relative abundance (Pi-AKT/β-Actin),"[1]; 30 μM, 48 h",<0.10
same,Relative abundance (Pi-AKT/β-Actin),"[1]; 30 μM, 72 h",<0.10
same,AKT phosphorylation inhibited to,"[1]; 30 μM, by 12 hours of treatment",50%
"CCCCCCCCCCCCCCCCCCNC(=O)[C@@H]1CSC(c2cc(F)cc(F)c2)N1 (mixture of isomers) [Compound 23, (2RS, 4R)-2-(3,5-Difluoro-phenyl)-thiazolidine-4-carboxylic acid octadecylamide]",IC50,"[3]; RH7777, Table 4, control cell line, 96 h",> 20 µM
same,IC50,"[4]; DU-145, read-out: IC50 DU-145, Table 4, 96 h",> 20 µM
same,IC50,[5]; Table 4,> 20 µM
same,IC50,"[2]; LNCaP, Table 4, 96 h, read-out: IC50 LNCaP",11.2 µM
same,IC50,"[6]; PPC-1, Table 4, 96 h",10.6 µM
same,IC50,"[7]; TSU-Pr1, Table 4, 96 h",> 20 µM
same,melting point,,113 °C
COc1ccc(C2N[C@H](C(=O)O)CS2)cc1 (stereo partly shown),IC50,"[3]; RH7777, 96 h",> 100 µM
same,IC50,"[4]; DU-145, 96 h, read-out: IC50 DU145",~100 µM
same,IC50,[5],> 100 µM
same,IC50,"[2]; LNCaP, 96 h, read-out: IC50 LNCaP",~50 µM
same,IC50,"[6]; PPC-1, 96 h",> 100 µM
same,IC50,"[7]; TSU-Pr1, 96 h",> 100 µM
same,IC50,"[8]; MCF7, 96 h",~100 µM
"CCCCCCCCCCCCCCCCCCNC(=O)[C@@H]1CSC(CCCCCCCCCCCC)N1 (mixture of isomers) [Compound 7, (2RS, 4R)-2-Dodecylthiazolidine-4-carboxylic acid octadecylamide]",IC50,"[3]; RH7777, Table 3, control cell line, 96 h",~20 µM
same,IC50,"[4]; DU-145, read-out: IC50 DU-145, Table 3, 96 h",8.9 µM
same,IC50,[5]; Table 3,15 µM
same,IC50,"[2]; LNCaP, Table 3, 96 h, read-out: IC50 LNCaP",11.9 µM
same,IC50,"[6]; PPC-1, Table 3, 96 h",13 µM
same,IC50,"[7]; TSU-Pr1, Table 3, 96 h",10.7 µM
same,IC50,"[8]; MCF7, Table 8, breast cancer cell line",10.4 µM
O=C(O)[C@@H]1CSC(c2cccnc2)N1 (stereo partly shown),IC50,"[3]; RH7777, Example 11 table, 96 h",> 100 µM
same,IC50,"[4]; DU-145, Example 11 table, 96 h, read-out: IC50 DU145",> 100 µM
same,IC50,[5]; Example 11 table,> 100 µM
same,IC50,"[2]; LNCaP, Example 11 table, 96 h, read-out: IC50 LNCaP",> 100 µM
same,IC50,"[6]; PPC-1, Example 11 table, 96 h",> 100 µM
same,IC50,"[7]; TSU-Pr1, Example 11 table, 96 h",~100 µM
same,IC50,"[8]; MCF7, Example 11 table, 96 h",> 100 µM
